Consider 1 molecule from publication PMC10755736, “Modulating Liquid–Liquid Phase Separation of Nck Adaptor Protein against Enteropathogenic Escherichia coli Infection” (ACS Central Science, 2023).

One data set concerns Nck-SH2K331A. As to the kind of experiment: Covalent reaction of p1 with Nck-SH2 K331A mutant. Format: binding. Particulars: PBS, 37 °C, 1 min or 10 min; SDS-PAGE. Here is the method: We next identified the residues in Nck-SH2 that are involved in the reaction with p1 by mass spectrometry. […] The Nck–p1 conjugate was digested with trypsin, and peptide fragments were analyzed with an in-line EASY-spray source and nano-LC UltiMate 3000 HPLC system interfaced with an Elite mass spectrometer, operated in the data-dependent acquisition (DDA) mode with one full MS scan at R = 60,000 (m/z = 200) mass followed by HCD MS/MS scans. […] The fragmentation spectral analysis of [EEHIpYXEVAAD(α)] + [HFKVQLK(β)] extracted by pLabel v2.4.3.0 (Figure 5a and Figure S6 in the Supporting Information)[38],[39] confirmed the ligand-directed conjugation of Nck-SH2 protein with p1 peptide. The underlined lysine residue in the β-chain sequence indicated the cross-linked site on the predicted Nck Lys331 residue. Next, we mutated Nck Lys331 to Ala, expressed and purified the Nck-SH2K331A mutant. […]
The reaction mixture of Nck and p1 were digested with trypsin. Digested peptides were analyzed with an in-line EASY-spray source and nano-LC UltiMate 3000 high-performance liquid chromatography system (Thermo Fisher, USA) interfaced with an Elite mass spectrometer (Thermo Fisher, USA). The eluted peptides were detected by the Elite mass spectrometer, which was operated in data-dependent mode with one full MS scan at R = 60,000 (m/z = 200) mass, followed by MS/MS scans. […]

The next data set deals with T1, Nck/N-WASP/3pY (Homo sapiens, UniProt P16333).
T1 construct: GST (followed by PreScission/HRV 3C site) (N, cleaved yes); made in house; host or cells: E. coli BL21(DE3)
Put plainly: Disruption of Nck/N-WASP/3pY droplets by pY peptides (microscopy). The data set is classed as biochemical. Particulars: peptide 12.5, 25, 50, 100 µM; 0, 10, 30 min; Nck 80 μM, N-WASP 15 μM, 3pY 10 μM; confocal. Here is the method:
Next, we explored the intervention of Nck/N-WASP/3pY LLPS using pY peptides (Figure 3a). Three pY-containing peptides extracted from different Tir sequences were synthesized, namely, peptides Y474, Y751, and Y147 (Figure 3b).
Figure 3 pY peptides disrupt Nck/N-WASP/3pY LLPS. (a) Sequences of synthetic pY peptides. […] Nck: 20 μM; N-WASP: 10 μM; 3pY: 10 μM. Scale bars, 20 μm. (c) Peptide Y474 rapidly decreases the turbidity of the Nck/N-WASP/3pY solution in around 20 min. Nck: 20 μM, N-WASP: 10 μM, 3pY: 10 μM. […] Nck: 20 μM, N-WASP: 10 μM, 3pY: 10 μM. […]
peptide 0 min 10 min 30 min
Peptides p1 with different concentrations were added to decrease the droplet formation of the Nck/N-WASP/3pY solution and droplet disassembles were observed under confocal microscopy at different times (0 min, 10 min and 30 min). Nck: 80 μM, N-WASP: 15 μM, 3pY: 10 μM. […]
Figure S13. […] Peptides Y474 with […]
different concentrations were added to decrease the droplet formation of the Nck/N-WASP/3pY solution and droplet disassembles were observed under confocal microscopy at different times (0 min, 10 min and 30 min). Nck: 80 μM, N-WASP: 15 μM, 3pY: 10 μM.

The next data set has as its system Caco-2 cells. As to the kind of experiment: Cell viability by CCK8 assay. Format: cell-based. The procedure:
concentrations were added to each well, followed by a 90-min incubation at 37 °C. Diluted streptavidin-HRP solution was then added, followed by substrate solution to develop cover at 450 nm, and recorded by a plate reader. For MST test, a series diluted solutions of the cy5 labeled peptides were incubated with 400 nM Nck for 30 min and loaded into 16 capillaries. And then the samples were scanned and measured at 20% IR Laser power with 30 s laser-on time on a Monolith NT.115 instrument (NanoTemper Technologies). The data were analyzed by KD fitting model (KD) or hill fitting model […]
A Cell Line Stably Expressing N-WASP
To establish a stable pool of cells for N-WASP overexpression, Caco-2 cells were infected at 70-80% confluency with the virus diluted in a suitable medium supplemented with 8 µg/ml […]. After 48 h of incubation, infected cells were treated with puromycin for 7-14 days. The selection medium was changed every 2 days. Under the same treatment conditions, uninfected parental cells were used as selection controls. […]
Plasmid extraction was done using a plasmid DNA Maxi kit (Omega Bio-Tek, GA, USA). […] 48 h after transfection, cells were analyzed by fluorescent micrscopes. Cell viability was measured by a CCK8 assay (Thermo Fisher Scientific) according to its manual. […]
Figure S10. […] The viability was measured at 450 nm absorbance.

“Also recorded” adds a separate entry of the source. Non-standard residues stand in square brackets, D forms with d. Residues, ends and D or L forms follow the SMILES beside them. *: point of attachment. Biotin = O=C1N[C@H]2[C@H](CS[C@H]2CCCCC(=O)*)N1; Benzoyl(4-SO2F) = O=C(c1ccc(S(=O)(=O)F)cc1)*; pY = N[C@@H](Cc1ccc(OP(=O)(O)O)cc1)C(=O)O; Dap = NC[C@H](N)C(=O)O

With `CC[C@H](C)[C@H](NC(=O)[C@H](Cc1c[nH]cn1)NC(=O)[C@H](CCC(=O)O)NC(=O)[C@H](CCC(=O)O)NC(=O)CCCC[C@@H]1SC[C@@H]2NC(=O)N[C@@H]21)C(=O)N[C@@H](Cc1ccc(OP(=O)(O)O)cc1)C(=O)N[C@@H](CNC(=O)c1ccc(S(=O)(=O)F)cc1)C(=O)N[C@@H](CCC(=O)O)C(=O)N[C@H](C(=O)N[C@@H](C)C(=O)N[C@@H](C)C(=O)N[C@@H](CC(=O)O)C(N)=O)C(C)C` [p1] (Biotin-EEHI[pY][Dap](Benzoyl(4-SO2F))EVAAD-NH2; N-terminus and C-terminus assumed), in the data set with Nck-SH2K331A, the “reactivity with Nck-SH2 K331A” value was “did not show noticeable reactivity; also recorded: abolished the covalent reaction”. Besides, the “reversal of Nck/N-WASP/3pY phase separation (droplet disassembly)” value on Nck/N-WASP/3pY is given as “reverses the phase separation; also recorded: disintegrate phase-separated Nck droplets”. Further, the cytotoxicity entry in the data set on Caco-2 cells (CCK8, p1 0.3125-10 μM with L17E 40 μM for 3 h, 48 h incubation) is given as “did not cause noticeable cytotoxicity”. Moreover, the “cell physiology or toxicity changes from side reactions of sulfonyl fluoride” value with Caco-2 cells (inside cells) is recorded as “did not cause noticeable changes in the cell physiology or toxicity”.
